According to patent publication US9320734B2, “Small molecule inhibitors of the pleckstrin homology domain and methods for using same” (Board of Regents, The University of Texas System, priority 2008, dated 2016):
Values after ≈ are worked out from the molar mass of the structure shown. Like-named read-outs stand apart in the source and are kept apart here.

How the values were obtained:
[1] = test system: phospho-Ser473-AKT in BxPC-3; experiment: Cellular AKT inhibition, Western blot phospho-Ser473-AKT, BxPC-3 cells; assay type: cell-based, human; details: for inhibition at 10 µM: Homo sapiens
HT-29 cells [2] = experiment: Cell survival / cytotoxicity, MTT assay, HT-29 cells; assay type: cell-based, human
[3] = test system: MiaPaca-2 pancreatic cell line; experiment: Apoptosis, morphological assay, MiaPaCa-2 cells; assay type: cell-based, human; details: MiaPaca-2, morphological assay
Excerpt: (§1) AKT inhibition leads to cellular apoptosis.

[4] = test system: Panc-1 pancreatic cell line; experiment: Apoptosis, morphological assay, Panc-1 cells; assay type: cell-based, human; details: Panc-1, morphological assay
Excerpt: as §1

[5] = test system: phospho-Ser473-AKT in MiaPaCa-2 cells; experiment: Cellular AKT inhibition, Western blot phospho-Ser473-AKT, MiaPaCa-2 cells; details: read-out: pAKT inhibition (IC50)
[6] = test system: phospho-Ser473-AKT in Panc-1 cells; experiment: Cellular AKT inhibition, Western blot phospho-Ser473-AKT, Panc-1 cells
Solubility = assay type: physicochemical
[7] = test system: phospho-Ser473-AKT in HT-29 cells; experiment: Cellular AKT inhibition, Western blot phospho-Ser473-AKT, HT-29 cells; assay type: cell-based; details: human HT-29 colon cancer cells
Procedure: as §1
(§2) AKT activity was measured by Western blotting using anti-[…] AKT antibody. Downstream targets of AKT were detected also by Western blotting using specific anti-phospho antibodies and anti-actin was used as a loading control.

[8] = test system: phospho-Ser473 AKT in NIH3T3 cells; experiment: Cellular AKT inhibition, phospho-Ser473 AKT, NIH3T3 cells; assay type: cell-based; details: mouse NIH3T3, phospho-Ser473 AKT
Procedure: as §2

[9] = test system: Panc-1 and MiaPaCa-2 pancreatic cancer cells; experiment: Cell viability assay (Table 3); details: for Cell viability (IC50): viability assay, cell line not given, N/I = no inhibition at the highest concentration tested; for cytotoxicity: either cell line tested (Panc-1, MiaPaCa-2)
HT-29 cells [10] = experiment: Metabolic stability under cell culture conditions (incubation with HT-29 cells); assay type: in vitro ADME, human; details: incubating with HT-29 cells at maximum DMEM concentration at 37° C.
Excerpt: Compound 6 was too insoluble to obtain data.

[11] = BxPC-3, Western blots phospho-Ser473-AKT, 10 μM, NI = not inhibitory, read-out: % pAKT Inhibition, At 10 μM
[12] = MTT assay, read-out: Cell survival (IC50)
[13] = Western blotting, phospho-Ser473-AKT, MiaPaCa-2 cells, N/I = no inhibition at the highest concentration tested
[14] = BXPC-3, read-out: % pAKT Inhibition, At 10 μM

With `CCOC(=O)Cc1nnc(NS(=O)(=O)c2ccc(NC(C)=O)cc2)s1` [Compound 118E, Ethyl 2-(5-(4-Acetamidophenylsulfonamido)-1,3,4-thiadiazol-2-yl)acetate] the inhibition at 10 µM [1, 11] was 55%.
`CCCCCCCCCCCCc1ccc(S(=O)(=O)Nc2nnc(C(C)(C)C)s2)cc1` [Compound 116, N-(5-tert-Butyl-1,3,4-thiadiazol-2-yl)-4-dodecylbenzenesulfonamide] showed an inhibition at 10 µM [1, 11] of 36%.
With `CC1=NN(C(=O)c2ccc(Cl)cc2)C(=O)C1/N=N/c1ccc(S(=O)(=O)Nc2nnc(C)s2)cc1` (stereo not drawn) [Compound 389] the IC50 (HT-29 cells [2]; [12]) was greater than 100 µM.
In the case of `CCCCCCCCCC(=O)Nc1ccc(S(=O)(=O)Nc2nnc(CC)s2)cc1` [Compound 111, N-(4-(N-(5-Ethyl-1,3,4-thiadiazol-2-yl)sulfamoyl)phenyl)decanamide], the inhibition at 10 µM [1, 11] is reported as 22%.
In the case of `CCCCCCCCCC(=O)Nc1ccc(S(=O)(=O)Nc2nnc(CO)s2)cc1` [Compound 127, N-(4-(N-(5-(hydroxymethyl)-1,3,4-thiadiazol-2-yl)sulfamoyl)phenyl)decanamide], the inhibition at 10 µM [1, 11] is reported as 11%.
Molecule `Nc1ccc(S(=O)(=O)Nc2nnc(CC(=O)O)s2)cc1` [Compound 117, 2-(5-(4-Aminophenylsulfonamido)-1,3,4-thiadiazol-2-yl)acetic Acid] has an inhibition at 10 µM [1, 11] of 23%.
For `COCCOCCOCC(=O)Nc1ccc(S(=O)(=O)Nc2nncs2)cc1` [Compound 103], the “Apoptosis at 20 μmol/L” value [3] was 18.7 ± 3.1%, the “Apoptosis at 20 μmol/L” value [4] was 11.4 ± 0.5/ % and the IC50 ([5]; MiaPaca-2, Western blots phospho-Ser473-AKT) was greater than 50 µM. It also gave an IC50 ([6]; read-out: pAKT inhibition (IC50), Panc-1, Western blots phospho-Ser473-AKT) greater than 50 µM.
In the case of `COc1cc(NS(=O)(=O)c2ccc(NS(=O)(=O)c3c(C)noc3C)cc2)nc(OC)n1` [Compound 415], the IC50 (HT-29 cells [2]; [12]) is reported as 3.1 µM.
With `CC(C)(C)c1nnc(NS(=O)(=O)c2ccc(N)cc2)s1` [Compound 113, 4-Amino-N-(5-tert-butyl-1,3,4-thiadiazol-2-yl)benzenesulfonamide] the inhibition at 10 µM [1, 11] was 13%.
`CCc1nnc(NS(=O)(=O)c2ccc(N)cc2)s1` [Compound 109, 4-Amino-N-(5-ethyl-1,3,4-thiadiazol-2-yl)benzenesulfonamide] gave an inhibition at 10 µM [1, 11] of 16%.
`CC1=NN(C(=O)c2ccc(Cl)cc2)C(O)C1/N=N/c1ccc(S(=O)(=O)Nc2ncccn2)cc1` (stereo not drawn) [Compound 335] showed a Solubility (Solubility) of less than 0.1 µM, an IC50 [7] of 5 µM and an IC50 [8] of 3 µM.
With `Nc1ccc(S(=O)(=O)Nc2ccc(S(=O)(=O)Nc3nnc(S(N)(=O)=O)s3)cc2)cc1` [Compound 456] the “Cell viability (IC50)” value [9] was “N/I” and the IC50 [5, 13] was 50 µM.
For `NS(=O)(=O)c1nnc(NS(=O)(=O)c2cccc3cccnc23)s1` [Compound 345], the IC50 (HT-29 cells [2]; [12]) was greater than 100 µM.
For `Nc1ccc(S(=O)(=O)Nc2nncs2)cc1` [Compound 100, 4-Amino-N-(1,3,4-thiadiazol-2-yl)benzenesulfonamide], the cytotoxicity [9] was “did not exhibit cytotoxicity” and the “Cell viability (IC50)” value [9] was “N/I”.
`CC1=NN(C(=O)c2ccccc2)C(=O)C1/N=N/c1ccc(S(=O)(=O)Nc2ncccn2)cc1` (stereo not drawn) [Compound 331] gave a Metabolic half life (HT-29 cells [10]) of 1.03 h, a Solubility (Solubility) of 28.3 µM (≈ 13.1 µg/mL) and an IC50 (HT-29 cells [2]; HT-29 cells, NI = not inhibitory, read-out: Cytotoxicity (IC50 μM)) of 14 µM. The IC50 [7] was 20 µM and the IC50 [8] was 11 µM.
Work on `Nc1ccc(S(=O)(=O)Nc2nnc(S(N)(=O)=O)s2)cc1` [Compound 131, 5-(4-Aminophenylsulfonamido)-1,3,4-thiadiazole-2-sulfonamide] yielded an inhibition at 10 µM [1, 14] of 18%.
With `CCCCCCCCCC(=O)Nc1ccc(S(=O)(=O)Nc2nnc(CC(=O)O)s2)cc1` [Compound 119, 2-(5-(4-Decanamidophenylsulfonamido)-1,3,4-thiadiazol-2-yl)acetic Acid] the inhibition at 10 µM [1, 11] was 42%.
Molecule `Cc1nnc(NS(=O)(=O)c2ccc(N)cc2)s1` [Compound 105, 4-Amino-N-(5-methyl-1,3,4-thiadiazol-2-yl)benzenesulfonamide] has an inhibition at 10 µM [1, 14] of 11%.
`CCCCCCCCCC(=O)Nc1ccc(S(=O)(=O)Nc2nncs2)cc1` [Compound 101, N-(4-(N-1,3,4-Thiadiazol-2-ylsulfamoyl)phenyl)decanamide] showed an IC50 ([6]; Homo sapiens, PANC-1, read-out: pAKT inhibition (IC50)) of 10 µM.
In the case of `CCCCCCCCCCCCc1ccc(S(=O)(=O)Nc2nnc(CCCCCN(C)c3ccc([N+](=O)[O-])c4nonc34)s2)cc1` [Compound 137, 4-Dodecyl-N-(5-(5-(methyl(7-nitrobenzo[c][1,2,5]oxadiazol-4-yl)amino)pentyl)-1,3,4-thiadiazol-2-yl)benzenesulfonamide], the AKT phosphorylation ([1]; BxPC-3 cells, compared with 104) is reported as “inhibited AKT phosphorylation in a fashion similar to 104”.
For `O=C(Nc1ccccc1)c1ccccc1NC(=O)c1ccccc1C(=O)O` [Compound 439], the “Cell viability (IC50)” value [9] was “N/I” and the IC50 [5, 13] was 50 µM.
Work on `CCCCCCCCCC(=O)Nc1ccc(S(=O)(=O)Nc2nnc(C(=O)OCC)s2)cc1` [Compound 123E, Ethyl 5-(4-Decanamidophenylsulfonamido)-1,3,4-thiadiazole-2-carboxylate] yielded an inhibition at 10 µM [1, 11] of 10%.
For `CCc1nnc(NS(=O)(=O)c2ccc(NC(C)=O)cc2)s1` [Compound 110, N-(4-(N-(5-Ethyl-1,3,4-thiadizol-2-yl)sulfamoyl)phenyl)acetamide], the “% pAKT Inhibition, At 10 μM” value ([1]; BxPC-3, Western blots phospho-Ser473-AKT, 10 μM, NI = not inhibitory) was 45%.
With `CCCCCCCCCCCCCCCCc1ccc(S(=O)(=O)Nc2nncs2)cc1` [Compound 157, 4-Hexadecyl-N-(1,3,4-thiadiazol-2-yl)benzenesulfonamide] the inhibition at 10 µM [1, 11] was 50%.
Molecule `CC(=O)Nc1ccc(S(=O)(=O)Nc2nnc(C(C)(C)C)s2)cc1` [Compound 114, N-(4-(N-(5-tert-Butyl-1,3,4-thiadiazol-2-yl)sulfamoyl)phenyl)acetamide] has an inhibition at 10 µM [1, 11] of 20%.
With `CCCCCCCCc1ccc(S(=O)(=O)Nc2nncs2)cc1` [Compound 153, 4-Octyl-N-(1,3,4-thiadiazol-2-yl)benzenesulfonamide] the inhibition at 10 µM [1, 11] was 10%.
With `CCOc1ccccc1C(=O)Nc1ccccc1C(=O)O` [Compound 441] the “Cell viability (IC50)” value [9] was “N/I” and the IC50 [5, 13] was 25 µM.
Work on `CC(=O)Nc1ccc(S(=O)(=O)Nc2nnc(CC(=O)O)s2)cc1` [Compound 118, 2-(5-(4-Acetamidophenylsulfonamido)-1,3,4-thiadiazol-2-yl)acetic Acid] yielded an inhibition at 10 µM [1, 11] of 19%.
In the case of `Nc1ccc(S(=O)(=O)Nc2nnc(CO)s2)cc1` [Compound 125, 4-Amino-N-(5-(hydroxymethyl)-1,3,4-thiadiazol-2-yl)benzenesulfonamide], the inhibition at 10 µM [1, 11] is reported as 10%.
`CCCCCCCCCC(=O)Nc1ccc(S(=O)(=O)Nc2nnc(C)s2)cc1` [Compound 107, N-(4-(N-(5-Methyl-1,3,4-thiadiazol-2-yl)sulfamoyl)phenyl)decanamide] showed an inhibition at 10 µM [1, 11] of 11%.
For `CCCCCCCCCC(=O)Nc1ccc(S(=O)(=O)Nc2nnc(C(C)(C)C)s2)cc1` [Compound 115, N-(4-(N-(5-tert-Butyl-1,3,4-thiadiazol-2-yl)sulfamoyl)phenyl)decanamide], the inhibition at 10 µM [1, 11] was 16%.
`CCCCCCCCCCCCc1ccc(S(=O)(=O)Nc2nnc(C)s2)cc1` [Compound 108, 4-Dodecyl-N-(5-methyl-1,3,4-thiadiazol-2-yl)benzenesulfonamide] showed an inhibition at 10 µM [1, 11] of 64%.
In the case of `COc1cc(NS(=O)(=O)c2ccc(NC(=O)c3ccco3)cc2)nc(OC)n1` [Compound 445], the “Cell viability (IC50)” value [9] is reported as “N/I” and the IC50 [5, 13] is reported as 50 µM.
In the case of `Cc1nnc(NS(=O)(=O)c2ccc(NS(=O)(=O)c3ccc4ccccc4c3)cc2)s1` [Compound 455], the cytotoxicity [9] is reported as “did not exhibit cytotoxicity” and the “Cell viability (IC50)” value [9] is reported as “N/I”.
In the case of `COc1cc(NS(=O)(=O)c2ccc(NC(C)=O)cc2)nc(OC)n1` [Compound 450], the “Cell viability (IC50)” value [9] is reported as “N/I” and the IC50 [5, 13] is reported as 50 µM.
For `COc1cc(NS(=O)(=O)c2ccc(Nc3ccco3)cc2)nc(OC)n1` [Compound 444], the “Cell viability (IC50)” value [9] was “N/I” and the IC50 [5, 13] was 50 µM.
Work on `CCCCCCCCCCCCCCc1ccc(S(=O)(=O)Nc2nncs2)cc1` [Compound 156, 4-Tetradecyl-N-(1,3,4-thiadiazol-2-yl)benzenesulfonamide] yielded an inhibition at 10 µM [1, 11] of 70%.
